{
  "source": "patent US5538968A",
  "about": "“Geneserine derivatives processes as cholinesterase inhibitors” (priority 1991, dated 1996)",
  "system": "acetylcholinesterase (AchE) in the brain",
  "test": "Time course of inhibition of brain acetylcholinesterase (AchE) in the rat after s.c. administration (Ellman acetylthiocholine method, ex vivo)",
  "parameters": "species or system rat (male Crl:CD (SD) BR)",
  "conditions": "for Time of peak effect on brain AchE: at doses producing effects comparable to 9 mg/kg CHF 2060",
  "protocol": "1. Acetylcholinesterase inhibition\nThe time course of inhibition of acetylcholinesterase (AchE) in the brain was assessed in male Crl:CD (SD) BR rats (Charles River Italia), weighing between 150-250 g.\nThe test substances were administered by s.c. route, dissolved in 2 ml/kg of sterile saline. 9 animals/group/time were used.\nControls received the vehicle only.\nAt various intervals (10-60-120-240 min) after administration the rats were sacrificed by decapitation and the brains were rapidly removed, weighed and immediately placed in 1 ml of phosphate buffer 0.1M, pH 8.0, added with 1% Triton 100 (Merck).\nAfter homogenization and centrifugation at 19943 g for 15 min at 4° C. the surnatant was separated and used for the determination of AchE activity according to the acetyltiocholine method described by Ellmann (Ellman G. L. et al., Biochem. Pharmacol. 7, 88, 1961).\nThe activity concentrations obtained (U/l surnatant) were individually corrected for the brain weight.",
  "note": "Counter-ions that a name gives are not always drawn.",
  "data": [
    {"smiles": "CCCCCCCNC(=O)Oc1ccc2c(c1)C1(C)CCN(C)OC1N2C", "note": "[CHF 2060, N-heptyl-geneserine L-tartrate]", "values": [
      {"measurement": "AUC 0-4 h of inhibition of brain acetylcholinesterase", "setting": "9 mg/kg s.c.", "result": 127, "unit": "% inib. hr"},
      {"measurement": "Max % inhib. of brain acetylcholinesterase", "setting": "9 mg/kg s.c.", "result": 45, "unit": "%"},
      {"measurement": "T max (time of the maximal inhibition)", "setting": "9 mg/kg s.c.", "result": "≥ 4", "unit": "h"},
      {"measurement": "Brain acetylcholinesterase % inhib.", "setting": "9 mg/kg s.c., 10 min", "result": 11, "unit": "%"},
      {"measurement": "Brain acetylcholinesterase activity, U/1 surn.", "setting": "9 mg/kg s.c., 10 min", "result": "3094 ± 197", "unit": "U/1 surn."},
      {"measurement": "Brain acetylcholinesterase activity, U/1 surn.", "setting": "9 mg/kg s.c., 60 min", "result": "2294 ± 150", "unit": "U/1 surn."},
      {"measurement": "Brain acetylcholinesterase % inhib.", "setting": "9 mg/kg s.c., 60 min, ** P < 0.01", "result": 29, "unit": "%"},
      {"measurement": "Brain acetylcholinesterase activity, U/1 surn.", "setting": "9 mg/kg s.c., 120 min", "result": "2205 ± 171", "unit": "U/1 surn."},
      {"measurement": "Brain acetylcholinesterase % inhib.", "setting": "9 mg/kg s.c., 120 min, ** P < 0.01", "result": 33, "unit": "%"},
      {"measurement": "Brain acetylcholinesterase activity, U/1 surn.", "setting": "9 mg/kg s.c., 240 min", "result": "1565 ± 80", "unit": "U/1 surn."},
      {"measurement": "Brain acetylcholinesterase % inhib.", "setting": "9 mg/kg s.c., 240 min, ** P < 0.01", "result": 45, "unit": "%"},
      {"measurement": "AUC 0-4 h of inhibition of brain acetylcholinesterase", "setting": "27 mg/kg s.c.", "result": 190, "unit": "% inib. hr"},
      {"measurement": "Max % inhib. of brain acetylcholinesterase", "setting": "27 mg/kg s.c.", "result": 68, "unit": "%"},
      {"measurement": "T max (time of the maximal inhibition)", "setting": "27 mg/kg s.c.", "result": "≥ 4", "unit": "h"},
      {"measurement": "Factor of increase of effect between 120 and 240 min", "setting": "27 mg/kg s.c., 120 to 240 min", "result": 1.4},
      {"measurement": "Brain acetylcholinesterase % inhib.", "setting": "27 mg/kg s.c., 10 min", "result": 12, "unit": "%"},
      {"measurement": "Brain acetylcholinesterase activity, U/1 surn.", "setting": "27 mg/kg s.c., 10 min", "result": "3070 ± 117", "unit": "U/1 surn."},
      {"measurement": "Brain acetylcholinesterase activity, U/1 surn.", "setting": "27 mg/kg s.c., 60 min", "result": "1782 ± 164", "unit": "U/1 surn."},
      {"measurement": "Brain acetylcholinesterase % inhib.", "setting": "27 mg/kg s.c., 60 min, ** P < 0.01", "result": 45, "unit": "%"},
      {"measurement": "Brain acetylcholinesterase activity, U/1 surn.", "setting": "27 mg/kg s.c., 120 min", "result": "1629 ± 38", "unit": "U/1 surn."},
      {"measurement": "Brain acetylcholinesterase % inhib.", "setting": "27 mg/kg s.c., 120 min, ** P < 0.01", "result": 50, "unit": "%"},
      {"measurement": "Brain acetylcholinesterase activity, U/1 surn.", "setting": "27 mg/kg s.c., 240 min", "result": "914 ± 26", "unit": "U/1 surn."},
      {"measurement": "Brain acetylcholinesterase % inhib.", "setting": "27 mg/kg s.c., 240 min, ** P < 0.01", "result": 68, "unit": "%"},
      {"measurement": "Inhibition of brain AchE (qualitative)", "setting": "s.c.", "result": "long-lasting inhibitor of brain AchE"},
      {"measurement": "Course of effect during the 4 hrs following the treatment", "setting": "s.c., 0-4 hrs", "result": "increase gradually during the 4 hrs following the treatment"},
      {"measurement": "Duration of action compared with Heptyl physostigmine tartrate", "setting": "s.c., 27 mg/kg vs 1 mg/kg HPYS, similar AUC", "result": "more sustained action"},
      {"measurement": "Significant inhibition of brain AchE", "setting": "s.c., 1 hr after administration (9 and 27 mg/kg), P<0,001", "result": "29-45%"},
      {"measurement": "Factor of increase of effect within 4 hrs in respect to the first hour", "setting": "s.c., 4 hrs vs 1 hr (9 and 27 mg/kg)", "result": "1.5-1.6"}
    ]},
    {"smiles": "CNC(=O)Oc1ccc2c(c1)C1(C)CCN(C)OC1N2C", "note": "(stereo not drawn) [Geneserine tartrate]", "values": [
      {"measurement": "AUC 0-4 h of inhibition of brain acetylcholinesterase", "setting": "3 mg/kg s.c.", "result": 133, "unit": "% inib. hr"},
      {"measurement": "Max % inhib. of brain acetylcholinesterase", "setting": "3 mg/kg s.c.", "result": "53-57%"},
      {"measurement": "T max (time of the maximal inhibition)", "setting": "3 mg/kg s.c.", "result": "0.167 to 1", "unit": "h"},
      {"measurement": "Brain acetylcholinesterase activity, U/1 surn.", "setting": "3 mg/kg s.c., 10 min", "result": "1447 ± 100", "unit": "U/1 surn."},
      {"measurement": "Brain acetylcholinesterase % inhib.", "setting": "3 mg/kg s.c., 10 min, ** P < 0.01", "result": 53, "unit": "%"},
      {"measurement": "Brain acetylcholinesterase activity, U/1 surn.", "setting": "3 mg/kg s.c., 60 min", "result": "1231 ± 86", "unit": "U/1 surn."},
      {"measurement": "Brain acetylcholinesterase % inhib.", "setting": "3 mg/kg s.c., 60 min, ** P < 0.01", "result": 57, "unit": "%"},
      {"measurement": "Brain acetylcholinesterase activity, U/1 surn.", "setting": "3 mg/kg s.c., 120 min", "result": "2162 ± 134", "unit": "U/1 surn."},
      {"measurement": "Brain acetylcholinesterase % inhib.", "setting": "3 mg/kg s.c., 120 min, ** P < 0.01", "result": 28, "unit": "%"},
      {"measurement": "Brain acetylcholinesterase % inhib.", "setting": "3 mg/kg s.c., 240 min", "result": 12, "unit": "%"},
      {"measurement": "Brain acetylcholinesterase activity, U/1 surn.", "setting": "3 mg/kg s.c., 240 min", "result": "2139 ± 208", "unit": "U/1 surn."},
      {"measurement": "Factor of reduction of effect 120 min. after the treatment", "setting": "s.c., 120 min vs peak", "result": "1.5-2"},
      {"measurement": "Effect on brain AchE after 240 min.", "setting": "s.c.", "result": "disappears after 240 min"},
      {"measurement": "Time of peak effect on brain AchE", "setting": "s.c.", "result": "10 to 60", "unit": "min"},
      {"measurement": "Onset of effect compared with CHF 2060", "setting": "s.c., vs 9 mg/kg CHF 2060, comparable AUC and maximum inhibition", "result": "more rapid effect"}
    ]},
    {"smiles": "CCCCCCCNC(=O)Oc1ccc2c(c1)[C@]1(C)CCN(C)[C@@H]1N2C", "note": "[Heptyl physostigmine tartrate]", "values": [
      {"measurement": "AUC 0-4 h of inhibition of brain acetylcholinesterase", "setting": "0.3 mg/kg s.c.", "result": 94, "unit": "% inib. hr"},
      {"measurement": "AUC 0-4 h of inhibition of brain acetylcholinesterase", "setting": "1 mg/kg s.c.", "result": 178, "unit": "% inib. hr"},
      {"measurement": "Max % inhib. of brain acetylcholinesterase", "setting": "1 mg/kg s.c.", "result": 54, "unit": "%"},
      {"measurement": "T max (time of the maximal inhibition)", "setting": "1 mg/kg s.c.", "result": 1, "unit": "h"},
      {"measurement": "Factor of reduction of effect between 120 and 240 min", "setting": "1 mg/kg s.c., 120 to 240 min", "result": 1.4},
      {"measurement": "Brain acetylcholinesterase activity, U/1 surn.", "setting": "1 mg/kg s.c., 10 min", "result": "2246 ± 115", "unit": "U/1 surn."},
      {"measurement": "Brain acetylcholinesterase % inhib.", "setting": "1 mg/kg s.c., 10 min, ** P < 0.01", "result": 29, "unit": "%"},
      {"measurement": "Brain acetylcholinesterase activity, U/1 surn.", "setting": "1 mg/kg s.c., 60 min", "result": "1166 ± 85", "unit": "U/1 surn."},
      {"measurement": "Brain acetylcholinesterase % inhib.", "setting": "1 mg/kg s.c., 60 min, ** P < 0.01", "result": 54, "unit": "%"},
      {"measurement": "Brain acetylcholinesterase activity, U/1 surn.", "setting": "1 mg/kg s.c., 120 min", "result": "1506 ± 115", "unit": "U/1 surn."},
      {"measurement": "Brain acetylcholinesterase % inhib.", "setting": "1 mg/kg s.c., 120 min, ** P < 0.01", "result": 52, "unit": "%"},
      {"measurement": "Brain acetylcholinesterase activity, U/1 surn.", "setting": "1 mg/kg s.c., 240 min", "result": "1867 ± 52", "unit": "U/1 surn."},
      {"measurement": "Brain acetylcholinesterase % inhib.", "setting": "1 mg/kg s.c., 240 min, ** P < 0.01", "result": 36, "unit": "%"}
    ]},
    {"smiles": "CNC(=O)Oc1ccc2c(c1)[C@]1(C)CCN(C)[C@@H]1N2C", "note": "[Physostigmine]", "values": [
      {"measurement": "AUC 0-4 h of inhibition of brain acetylcholinesterase", "setting": "0.4 mg/kg s.c.", "result": 135, "unit": "% inib. hr"},
      {"measurement": "Brain acetylcholinesterase activity, U/1 surn.", "setting": "0.4 mg/kg s.c., 10 min", "result": "1368 ± 125", "unit": "U/1 surn."},
      {"measurement": "Brain acetylcholinesterase activity, U/1 surn.", "setting": "0.4 mg/kg s.c., 60 min", "result": "1483 ± 148", "unit": "U/1 surn."},
      {"measurement": "Brain acetylcholinesterase activity, U/1 surn.", "setting": "0.4 mg/kg s.c., 120 min", "result": "1829 ± 94", "unit": "U/1 surn."},
      {"measurement": "Brain acetylcholinesterase activity, U/1 surn.", "setting": "0.4 mg/kg s.c., 240 min", "result": "2234 ± 151", "unit": "U/1 surn."},
      {"measurement": "Effect on brain AchE after 240 min.", "setting": "s.c.", "result": "disappears after 240 min"},
      {"measurement": "Time of peak effect on brain AchE", "setting": "s.c.", "result": "10 to 60", "unit": "min"}
    ]}
  ]
}
